Source: BindingDB's records for patent US20250034169 (Sunshine Lake Pharma Co., 2025)

Experiments:
[1] = biological target: GTPase KRas (G12D) and Son of Sevenless Homolog 1 (SOS) (Homo sapiens, UniProt P01116+Q07889, G12D); assay: KRAS G12D/SOS1 Binding Assay
Procedure: (§1) (1) Compound was prepared with DMSO, and diluted by 3-fold gradient with DMSO.(2) 0.1 μl of serial dilutions of the compound was added to a 384-well plate.(3) 5 μl of Tag2-KRASG12D>P at a specific concentration was added to the 384-well plate, and the plate was centrifuged at 1000 rpm for 1 min.(4) Then 5 μl of Tag1-SOS1 at a specific concentration was added to the 384-well plate, and the plate was centrifuged at 1000 rpm for 1 min.(5) The plate was incubated at 25° C. for 15 min.(6) 10 μl of the mixture of anti-Tag1-Tb3+ and anti-Tag2-XL665 was added to the 384-well plate.(7) The plate was centrifuged at 1000 rpm for 1 min and incubated at 4° C. for 3 h.(8) The 665/615 nm ratio was read by a microplate reader.(9) Data analysis: The log value of the compound concentration was taken as the abscissa, and the 665/615 nm ratio was used as the ordinate, the data were analyzed by GraphPad Prism 8.0 software.

[2] = biological target: GTPase KRas [G12D]/RAF proto-oncogene serine/threonine-protein kinase (Homo sapiens, UniProt P01116+P04049, G12D); assay: KRAS G12D/cRAF Binding Assay
Procedure: as §1, with “Tag1-cRAF” for “Tag1-SOS1”

Compound	IC50 [1] [nM]	IC50 [2] [nM]
C#Cc1c(F)ccc2cc(O)cc(-c3nc(OCCC(F)(F)F)c4c(N5CC6CCC(C6)C5)nc(OC[C@@]56CCCN5C[C@H](F)C6)nc4c3F)c12 [US20250034169, Compound 9]	12.6	8.8
C#Cc1c(F)ccc2cc(O)cc(-c3nc(OCCOC)c4c(N5CC6CCC(C6)C5)nc(OC[C@@]56CCCN5C[C@H](F)C6)nc4c3F)c12 [US20250034169, Compound 10]	13.9	8.7
[2H]C([2H])([2H])c1nc(-c2cc(O)cc3ccc(F)c(C#C)c23)c(F)c2nc(OC[C@@]34CCCN3C[C@H](F)C4)nc(N3CC4CCC(C4)C3)c12 [US20250034169, Compound 11]	19.8	9.2
C#Cc1c(F)ccc2cc(O)cc(-c3nc(OCC)c4c(N5CC6CCC(C6)C5)nc(OC[C@@]56CCCN5C[C@H](F)C6)nc4c3F)c12 [US20250034169, Compound 12]	10.3	9.7
C#Cc1c(F)ccc2cc(O)cc(-c3nc(C(=O)OCC)c4c(N5CC6CCC(C6)C5)nc(OC[C@@]56CCCN5C[C@H](F)C6)nc4c3F)c12 [US20250034169, Compound 13]	11.3	5.1
C#Cc1c(F)ccc2cc(O)cc(-c3nc(C#CCC)c4c(N5CC6CCC(C6)C5)nc(OC[C@@]56CCCN5C[C@H](F)C6)nc4c3F)c12 [US20250034169, Compound 24]	15.1	13.6
C#Cc1c(F)ccc2cc(O)cc(-c3nc(C#CCOC)c4c(N5CC6CCC(C6)C5)nc(OC[C@@]56CCCN5C[C@H](F)C6)nc4c3F)c12 [US20250034169, Compound 25]	16.8	15
C#Cc1c(F)ccc2cc(O)cc(-c3nc(C#CC4CCCC4)c4c(N5CC6CCC(C6)C5)nc(OC[C@@]56CCCN5C[C@H](F)C6)nc4c3F)c12 [US20250034169, Compound 28]	11.5	11.1
C#Cc1c(F)ccc2cc(O)cc(-c3nc(C#CCC(C)C)c4c(N5CC6CCC(C6)C5)nc(OC[C@@]56CCCN5C[C@H](F)C6)nc4c3F)c12 [US20250034169, Compound 29]	15.9	14.7
C#Cc1c(F)ccc2cc(O)cc(-c3nc(C#CCCC(C)C)c4c(N5CC6CCC(C6)C5)nc(OC[C@@]56CCCN5C[C@H](F)C6)nc4c3F)c12 [US20250034169, Compound 30]	13.4	8.8
C#Cc1c(F)ccc2cc(O)cc(-c3nc(C#CCCC#N)c4c(N5CC6CCC(C6)C5)nc(OC[C@@]56CCCN5C[C@H](F)C6)nc4c3F)c12 [US20250034169, Compound 31]	34.6	24.6
C#Cc1c(F)ccc2cc(O)cc(-c3nc(C#C)c4c(N5CC6CC(C6)C5)nc(OC[C@@]56CCCN5C[C@H](F)C6)nc4c3F)c12 [US20250034169, Compound 41]	31.4	22
C#Cc1c(F)ccc2cc(O)cc(-c3nc(C#C)c4c(N5CCC[C@@H](C)C5)nc(OC[C@@]56CCCN5C[C@H](F)C6)nc4c3F)c12 [US20250034169, Compound 43]	24.1	16.3
C#Cc1c(F)ccc2cc(O)cc(-c3nc(C#C)c4c(N5C[C@H]6CC[C@@H]5C6)nc(OC[C@@]56CCCN5C[C@H](F)C6)nc4c3F)c12 [US20250034169, Compound 44]	29.6	15.2
C#Cc1c(F)ccc2cc(O)cc(-c3nc(C#C)c4c(N5CC6CCC(C6)C5)nc(OC[C@]56CCCN5C[C@H](F)C6)nc4c3F)c12 [US20250034169, Compound 49]	15.7	6.9
C#Cc1c(F)ccc2cc(O)cc(-c3nc(C#C)c4c(N5CC6CCC(C6)C5)nc(OC[C@H]5CCCN5C)nc4c3F)c12 [US20250034169, Compound 50]	36.2	19.1
C#Cc1c(F)ccc2cc(O)cc(-c3nc(C#C)c4c(N5CC6CCC(C6)C5)nc(OC[C@@H]5CCCN5C)nc4c3F)c12 [US20250034169, Compound 51]	20.8	11.1
C#Cc1c(F)ccc2cc(O)cc(-c3nc(C#C)c4c(N5C6CCCC5CC6)nc(OCC5(CN(C)C)CC5)nc4c3F)c12 [US20250034169, Compound 52]	15.2	7.7
C#Cc1c(F)ccc2cc(O)cc(-c3nc(C#C)c4c(N5C6CCCC5CC6)nc(OCC5(CN6CCCCC6)CC5)nc4c3F)c12 [US20250034169, Compound 53]	14.6	4.3
C#Cc1c(F)ccc2cc(O)cc(-c3nc(C#C)c4c(N5CC6CCC(C6)C5)nc(OCCC(F)(F)F)nc4c3F)c12 [US20250034169, Compound 55]	14.8	9.8
C#Cc1c(F)ccc2cc(O)cc(-c3nc(C#C)c4c(N5CC6CCC(C6)C5)nc(OCC5CCCC5)nc4c3F)c12 [US20250034169, Compound 56]	15.7	18.5
C#Cc1nc(-c2cc(O)cc3ccc(F)c(CC)c23)c(F)c2nc(OC[C@@]34CCCN3C[C@H](F)C4)nc(N3CC4CCC(C4)C3)c12 [US20250034169, Compound 65]	18.5	9.9
